Earlier results, collected in patent US5596019A, “N-acyl-cycloalkylamine derivatives as melatonergics” (Bristol-Myers Squibb Company, priority 1995, dated 1997).

How the values were obtained:
[1] = test system: circadian rhythms; conditions: exogenous melatonin, rats

oral bioavailability: often low and variable
Compound: COc1ccc2[nH]cc(CCNC(C)=O)c2c1 [melatonin, N-acetyl-5-methoxytryptamine]
synchronization of circadian rhythms [1]: synchronize circadian rhythms in rats
